Patent publication US10940475B2, “Gradient-on-a-chip” (Purdue Research Foundation, priority 2017, dated 2021)
Where two headings read alike, the source gives them in different places.

Experiments:
S2 cells [1] = settings: four hours
Experimental: (§1) A NE-4000X dual syringe pump (New era pump systems Inc., Farmingdale, N.Y.) was exposed to UV overnight before the day of experiments. The flow rate was adjusted to 0.1 ml/h, and using a 60 ml syringe a continuous inflow of medium and H2O2 (250 μM) through the inlets was maintained. The second pump was connected to the outlet to remove the medium at 0.2 ml/h to avoid overflow of liquids in the cell culture aperture of the device. The flow rate for the outlet pump was twice that of the incoming flow rate to accommodate for the use of two inlets. The paper strip with cells in 2D or 3D culture was placed in the cell culture slot of the device and exposed to the ROS gradient for four hours.

S2 cells [2] = settings: four hours; remark: listed apart in the source
Experimental: as §1
Nuclear circularity and nuclear area were measured using the ImageJ software by outlining the nuclear shape based on DAPI staining. The most circular nuclei are given a score of 1 (perfectly round nucleus). Nuclear area was measured in pixels and converted to μm^2 based on the spatial calibration table of ImageJ.

S2 cells [3] = settings: for cells with γ-H2Ax staining: low ROS concentration tier, gradient from 250 μM H2O2, four hours
Experimental: Human mammary epithelial non-neoplastic S1 cells^17 [used between passages 52 to 60], preinvasive S2 cells^18 [used between passages 218+2 and 218+10] and invasive T4-2 cells^19 [used between passages 28+4 and 28+10] that belong to the HMT-3522 breast cancer progression series, were cultured in H-14 medium, i.e., Dulbecco modified Eagle medium (DMEM) (Invitrogen Inc., Carlsbad, Calif.) supplemented with additives, prolactin (30.3 IU/ml; Sigma-Aldrich, St Louis, Mo.), insulin (100 μg/ml; Sigma-Aldrich), hydrocortisone (0.5 mg/ml; BD Biosciences, San Jose, Calif.), beta-estradiol (2.67×10^−5 μg/ml; Sigma-Aldrich), selenium (2.6 μg/ml; BD Biosciences) and transferrin (20 mg/ml; Sigma-Aldrich)^20. The culture medium also included epithelial growth factor (EGF) (20 mg/ml; BD Biosciences) until day 6 of culture, after which EGF was omitted from the culture medium to ensure proliferation arrest in 3D culture. Cell culture was performed at 37° C. in a humidified environment with 5% carbon dioxide and the culture medium was changed every three days for the S1 cells and every two days for S2 and T4-2 cells. Seeding densities in 2D culture were 22600 cells/cm^2 for S1 cells and 11900 cells/cm^2 for S2 and T4-2 cells. In 3D culture seeding densities were 86300 cells/cm^2 for S1 cells in the presence of Engelbreth-Holm-S warm (EHS) mouse derived Matrigel (Corning Life Sciences, Tewksbury, Ma.) or within collagen-1 rich Collymer matrix (GeniPhys™, Zionsville, Ind.) and 43150 cells/cm^2 for S2 and T4-2 cells. […] Briefly, 42 μl of Matrigel per cm^2 was used for the drip method with cells in 150 μl of medium, dripped on the gel-coated surface, before adding another 150 μl of medium with 10% EHS gel drop-by-drop all over the culture surface five minutes later (in the end seeding involved 3.47×10^4S1 cells/cm^2 per 55 μl of Matrigel; 1.74×10^4S2 or T4-2 cells/cm^2 per 55 μl of Matrigel). Collymers were prepared at different degrees of stiffness based on the formula provided by the manufacturer. S1 cells were cultured in 800 Pa Collymers stiffness, S2 cells were cultured in 800 Pa and 1500 Pa Collymers stiffness and T4-2 cells were cultured in 1500 Collymers stiffness. For the S2 cells, since they are preinvasive and nodules are surrounded by a basement membrane, basement membrane formation inducer laminin 111 (Corning) was mixed at 76 μg/ml final concentration with Collymers. For the Collymers thin-embedded culture, the surface was coated with 14 μl/cm^2 of Collymers of the desired stiffness. Collymers become opaque when they form a gel by incubation five minutes at 37° C. Cells were mixed with Collymers at the following concentrations per surface of culture and Collymers volume units: 4500 cells/cm^2/μl for S1 cells and 2262 cells/cm^2/μl for S2 and T4-2 cells. Following centrifugation at 2950 g for five minutes, the cells needed for each culture surface were put in solution in 5 μl of H-14 medium. Then, the cell suspension was mixed with Collymers (55 μl/cm^2 of culture surface) by gentle pipetting before coating on the cell culture surface, drop-by-drop all over the surface, and spreading with the pipette tip to ensure even distribution over the culture surface. After incubation five minutes at 37° C., 500 μl medium was added on top of the Collymers-embedded cells.
Antibodies used included Anti-rabbit Caspase-3 (Cell Signaling Technologies, Boston, Mass. 1/400 dilution), AOP2 (Abcam, Cambridge, Mass.; 2 μg/ml) and γ-H2AX (Ser139; Millipore, clone JBW301, 3.3 μg/ml). […]

## OO [ROS, hydrogen peroxide]
S2 cells [1]; low ROS concentration tier, 2D and 3D Matrigel culture
  oxidative DNA damage based on 8-OHdG expression: did no show oxidative DNA damage
S2 cells [1]; medium and high ROS concentration tiers, 2D cell culture and 3D Matrigel cell culture
  8-OHdG levels: significant, but similar increase
S2 cells [1]; regardless of the ROS levels
  AOP2 response (nodules stained for AOP2): ~100%
S2 cells [2]; ROS exposure regardless of the cell culture condition
  nuclear area: increased
S2 cells [2]; with increasing ROS concentration tiers, all culture conditions
  nuclear circularity: decreased
S2 cells [3]; high concentration tier, all culture conditions, four hours
  γ-H2AX response level of the cell population: around 40%
S2 cells [3]; 800 Pa Collymers
  cells with γ-H2Ax staining: 20%
S2 cells [3]; 1500 Pa Collymers culture
  cells with γ-H2Ax staining: less than 5%
S2 cells [3]; Matrigel culture
  cells with γ-H2Ax staining: less than 5%
S2 cells [3]; cells cultured on paper (2D)
  cells with γ-H2Ax staining: 20%
